As a reminder, the EC50 is the concentration needed to bring the measured effect to its halfway point.

SMILES strings stand for the structures.

The assay deals with human LPAR1 (Homo sapiens, UniProt Q92633). The assay is described as follows: LPAR1 intracellular calcium mobilization assay (antagonist mode).
human LPAR1, sequence (Q92633 whole entry): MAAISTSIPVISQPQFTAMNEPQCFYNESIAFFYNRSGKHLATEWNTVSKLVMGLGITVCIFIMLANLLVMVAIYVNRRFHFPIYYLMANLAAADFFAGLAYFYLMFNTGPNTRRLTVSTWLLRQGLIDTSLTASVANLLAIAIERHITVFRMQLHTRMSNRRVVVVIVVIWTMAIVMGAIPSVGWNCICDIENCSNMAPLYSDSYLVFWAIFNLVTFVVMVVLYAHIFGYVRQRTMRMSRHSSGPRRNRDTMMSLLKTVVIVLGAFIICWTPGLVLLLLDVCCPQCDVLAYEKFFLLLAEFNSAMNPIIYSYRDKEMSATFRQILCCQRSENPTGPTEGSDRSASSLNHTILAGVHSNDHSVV

Experimental: In vitro LPAR1 activity was measured in an intracellular calcium mobilization assay.
Prior to testing cell media were aspirated from the cells and replaced with 20 μL Calcium Dye Loading Buffer (DiscoverX Calcium NoWash^PLUS Assay Kit cat #90-0091) and 2.5 mM Probenecid (Sigma Aldrich cat #P8761, prepared fresh) in HBSS/20 mM Hepes for 60 min at 37° C.
For agonist dose curves, cells were removed from the incubator after dye loading and 10 μL HBSS/20 mM Hepes including 3× vehicle was added. Cells were incubated for 30 min at room temperature in the dark to equilibrate plate temperatures. An intermediate LPA dilution series was prepared in assay buffer to generate 4× stock. Calcium mobilization was monitored on a FLIPR Tetra (MDS, San Jose, Calif.) for 2 min and 10 μL 4×LPA in HBSS/20 mM Hepes was added to the cells 5 s into the assay.
An intermediate antagonist dilution series was prepared as 3× samples in assay buffer. After dye loading, cells were removed from the incubator and 10 μL 3× antagonist was added. Cells were incubated for 30 min at room temperature in the dark to equilibrate plate temperatures. The final vehicle (DMSO) concentration was 1%. Compound antagonist activities was measured on a FLIPR Tetra. Calcium mobilization was monitored for 2 min and 10 μL EC80 agonist in HBSS/20 mM Hepes was added to the cells 5 s into the assay. Compound activity was analyzed using CBIS data analysis suite (ChemInnovation Software, San Diego, Calif.).

`C[C@@H](OC(=O)Nc1c(-c2ccc(NS(C)(=O)=O)c(F)n2)nnn1C)c1ccccc1` [Compound 3, (R)-1-phenylethyl (4-(6-fluoro-5-(methylsulfonamido)pyridin-2-yl)-1-methyl-1H-1,2,3-triazol-5-yl)carbamate]: the concentration giving a half-maximal response (EC50) came to 166 nM.
Take `Cn1nnc(-c2ccc(NS(C)(=O)=O)cn2)c1NC(=O)OCc1cccc(F)c1` [Compound 21, 3-fluorobenzyl (1-methyl-4-(5-(methylsulfonamido)pyridin-2-yl)-1H-1,2,3-triazol-5-yl)carbamate]: the concentration giving a half-maximal response (EC50) amounted to 37.8 nM.
Regarding `CCCCC[C@@H](C)OC(=O)Nc1c(-c2ccc(NS(C)(=O)=O)c(C)n2)nnn1C` [Compound 71, (R)-heptan-2-yl (1-methyl-4-(6-methyl-5-(methylsulfonamido)pyridin-2-yl)-1H-1,2,3-triazol-5-yl)carbamate], the EC50 turned out to be 1740 nM.
With `Cn1nnc(-c2ccc(NS(=O)(=O)CC#N)cn2)c1NC(=O)O[C@@H](c1ccccc1)C(F)F` [Compound 13, (S)-2,2-difluoro-1-phenylethyl(4-(5-((cyanomethyl)sulfonamido)pyridin-2-yl)-1-methyl-1H-1,2,3-triazol-5-yl)carbamate], the EC50 came out at 71.4 nM.
Turning to `Cc1nc(-c2nnn(C)c2NC(=O)O[C@H](C)c2ccccc2C(F)(F)F)ccc1NS(C)(=O)=O` [Compound 98, (R)-1-(2-(trifluoromethyl)phenyl)ethyl (1-methyl-4-(6-methyl-5-(methylsulfonamido)pyridin-2-yl)-1H-1,2,3-triazol-5-yl)carbamate], the EC50 is 69.9 nM.
As for `C[C@@H](OC(=O)Nc1c(-c2ccc(NS(C)(=O)=O)cn2)nnn1C)c1cc(Cl)cnc1F` [Compound 111, (R)-1-(5-chloro-2-fluoropyridin-3-yl)ethyl (1-methyl-4-(5-(methylsulfonamido)pyridin-2-yl)-1H-1,2,3-triazol-5-yl)carbamate], the EC50 is 42.1 nM.
With `Cc1nc(-c2nnn(C)c2NC(=O)O[C@H](C)c2cccc(F)c2)ccc1NS(=O)(=O)C1CCC1` [Compound 104, (R)-1-(3-fluoro-phenyl)ethyl(4-(5-(cyclobutane-sulfonamido)-6-methylpyridin-2-yl)-1-methyl-1H-1,2,3-triazol-5-yl)carbamate], the EC50 is 434 nM.
As to `Cc1nc(-c2nnn(C)c2NC(=O)O[C@H](C)c2cc(Br)cnc2F)ccc1NS(C)(=O)=O` [Compound 125, (R)-1-(5-bromo-2-fluoropyridin-3-yl)ethyl (1-methyl-4-(6-methyl-5-(methylsulfonamido)pyridin-2-yl)-1H-1,2,3-triazol-5-yl)carbamate], the EC50 turned out to be 187 nM.
`CCS(=O)(=O)Nc1ccc(-c2nnn(C)c2NC(=O)O[C@H](C)c2cccc(F)c2)nc1C` [Compound 101, (R)-1-(3-fluorophenyl) ethyl(4-(5-(ethyl-sulfonamido)-6-methyl-pyridin-2-yl)-1-methyl-1H-1,2,3-triazol-5-yl)carbamate]: the EC50 was found to be 261 nM.
Consider `Cc1cccc(COC(=O)Nc2c(-c3ccc(NS(C)(=O)=O)cn3)nnn2C)c1` [Compound 19, 3-methylbenzyl (1-methyl-4-(5-(methylsulfonamido)pyridin-2-yl)-1H-1,2,3-triazol-5-yl)carbamate], for which the EC50 was 284 nM.
With `[2H]C([2H])([2H])N(c1ccc(-c2nnn(C)c2NC(=O)O[C@H](C)c2cccnc2Cl)nc1C)S(C)(=O)=O` [Compound 164, (R)-1-(2-chloropyridin-3-yl)ethyl (1-methyl-4-(6-methyl-5-(N-(methyl-d3)methylsulfonamido)pyridin-2-yl)-1H-1,2,3-triazol-5-yl)carbamate] the figure was 438 nM; with `Cc1nc(-c2nnn(C)c2NC(=O)OC(C)c2nccnc2Cl)ccc1NS(C)(=O)=O` (stereo not shown) [Compound 76, 1-(3-chloropyrazin-2-yl)ethyl (1-methyl-4-(6-methyl-5-(methylsulfonamido)pyridin-2-yl)-1H-1,2,3-triazol-5-yl)carbamate], 929 nM; with `Cc1nc(-c2nnn(C)c2NC(=O)OC(C)c2cc(Br)cnc2Cl)ccc1NS(C)(=O)=O` (stereo not shown) [Compound 130, 1-(5-bromo-2-chloropyridin-3-yl)ethyl (1-methyl-4-(6-methyl-5-(methylsulfonamido)pyridin-2-yl)-1H-1,2,3-triazol-5-yl)carbamate], 272 nM.
As for `Cc1nc(-c2nnn(C)c2NC(=O)OC(C)c2cc(Cl)cnc2Cl)ccc1NS(C)(=O)=O` (stereo not shown) [Compound 84, 1-(2,5-dichloropyridin-3-yl)ethyl (1-methyl-4-(6-methyl-5-(methylsulfonamido)pyridin-2-yl)-1H-1,2,3-triazol-5-yl)carbamate], the EC50 came out at 193 nM.
For `COc1nc(-c2nnn(C)c2NC(=O)O[C@H](C)c2ccccc2Cl)ccc1NS(C)(=O)=O` [Compound 4, (R)-1-(2-chlorophenyl)ethyl (4-(6-methoxy-5-(methylsulfonamido)pyridin-2-yl)-1-methyl-1H-1,2,3-triazol-5-yl)carbamate], the EC50 was 61.7 nM.
On to `Cc1nc(-c2nnn(C)c2NC(=O)OCCC(C)C)ccc1NS(C)(=O)=O` [Compound 33, isopentyl (1-methyl-4-(6-methyl-5-(methylsulfonamido)pyridin-2-yl)-1H-1,2,3-triazol-5-yl)carbamate], for which the EC50 stood at 3680 nM.
Under `C[C@@H](OC(=O)Nc1c(-c2ccc(NS(C)(=O)=O)cn2)nnn1C)c1cnsc1Cl` [Compound 118, (R)-1-(5-chloroisothiazol-4-yl)ethyl (1-methyl-4-(5-(methylsulfonamido)pyridin-2-yl)-1H-1,2,3-triazol-5-yl)carbamate] stands 57.8 nM; under `Cc1nc(-c2nnn(C)c2NC(=O)OC(C)c2ccncc2Cl)ccc1NS(C)(=O)=O` (stereo not shown) [Compound 75, 1-(3-chloropyridin-4-yl)ethyl (1-methyl-4-(6-methyl-5-(methylsulfonamido)pyridin-2-yl)-1H-1,2,3-triazol-5-yl)carbamate], 155 nM.
For `Cn1nnc(-c2ccc(NS(C)(=O)=O)cn2)c1NC(=O)O[C@@H](c1ccccc1)C(F)F` [Compound 15, (S)-2,2-difluoro-1-phenylethyl (1-methyl-4-(5-(methylsulfonamido)pyridin-2-yl)-1H-1,2,3-triazol-5-yl)carbamate], the EC50 is 8.2 nM.
On to `C[C@@H](OC(=O)Nc1c(-c2ccc(NS(C)(=O)=O)c(F)n2)nnn1C)c1cccnc1Cl` [Compound 153, (R)-1-(2-chloropyridin-3-yl)ethyl (4-(6-fluoro-5-(methylsulfonamido)pyridin-2-yl)-1-methyl-1H-1,2,3-triazol-5-yl)carbamate], for which the EC50 is 207 nM.
Take `C[C@@H](OC(=O)Nc1c(-c2ccc(NS(C)(=O)=O)c(C3CC3)n2)nnn1C)c1cccnc1Cl` [Compound 149, (R)-1-(2-chloropyridin-3-yl)ethyl (4-(6-cyclopropyl-5-(methylsulfonamido)pyridin-2-yl)-1-methyl-1H-1,2,3-triazol-5-yl)carbamate]: the EC50 is 304 nM.
With `Cc1nc(-c2nnn(C)c2NC(=O)O[C@H](C)c2cc(F)c(F)cc2F)ccc1NS(C)(=O)=O` [Compound 90, (R)-1-(2,4,5-trifluorophenyl)ethyl(1-methyl-4-(6-methyl-5-(methylsulfonamido)pyridin-2-yl)-1H-1,2,3-triazol-5-yl)carbamate] the figure was 282 nM; with `CNS(=O)(=O)Nc1ccc(-c2nnn(C)c2NC(=O)O[C@H](C)c2cccnc2Cl)nc1C` [Compound 163, (R)-1-(2-chloropyridin-3-yl)ethyl (1-methyl-4-(6-methyl-5-((N-methylsulfamoyl)amino)pyridin-2-yl)-1H-1,2,3-triazol-5-yl)carbamate], 208 nM.
Consider `Cc1nc(-c2nnn(C)c2NC(=O)OC(C)c2ccncc2F)ccc1NS(C)(=O)=O` (stereo not shown) [Compound 132, 1-(3-fluoropyridin-4-yl)ethyl (1-methyl-4-(6-methyl-5-(methylsulfonamido)pyridin-2-yl)-1H-1,2,3-triazol-5-yl)carbamate], for which the EC50 is 1130 nM.
On to `C[C@@H](OC(=O)Nc1c(-c2ccc(NS(C)(=O)=O)cn2)nnn1C)c1cc(Cl)sc1Cl` [Compound 110, (R)-1-(2,5-dichlorothiophen-3-yl)ethyl (1-methyl-4-(5-(methylsulfonamido)pyridin-2-yl)-1H-1,2,3-triazol-5-yl)carbamate], for which the EC50 was found to be 12.3 nM.
Turning to `C[C@@H](OC(=O)Nc1c(-c2ccc(NS(C)(=O)=O)cn2)nnn1C)c1ccccc1F` [Compound 16, (R)-1-(2-fluorophenyl)ethyl (1-methyl-4-(5-(methylsulfonamido)pyridin-2-yl)-1H-1,2,3-triazol-5-yl)carbamate], the EC50 was 5.3 nM.
Turning to `Cc1nc(-c2nnn(C)c2NC(=O)OC(C)c2cc(F)cnc2Br)ccc1NS(C)(=O)=O` (stereo not shown) [Compound 126, 1-(2-bromo-5-fluoropyridin-3-yl)ethyl (1-methyl-4-(6-methyl-5-(methylsulfonamido)pyridin-2-yl)-1H-1,2,3-triazol-5-yl)carbamate], the EC50 turned out to be 232 nM.
Consider `Cc1nc(-c2nnn(C)c2NC(=O)O[C@H](C)c2cc(F)cnc2C#N)ccc1NS(C)(=O)=O` [Compound 152, 1-(2-cyano-5-fluoropyridin-3-yl)ethyl (1-methyl-4-(6-methyl-5-(methylsulfonamido)pyridin-2-yl)-1H-1,2,3-triazol-5-yl)carbamate], for which the EC50 was determined as 1300 nM.
Turning to `Cc1ncc(F)cc1[C@@H](C)OC(=O)Nc1c(-c2ccc(NS(C)(=O)=O)cn2)nnn1C` [Compound 112, (R)-1-(5-fluoro-2-methylpyridin-3-yl)ethyl (1-methyl-4-(5-(methylsulfonamido)pyridin-2-yl)-1H-1,2,3-triazol-5-yl)carbamate], the EC50 stood at 106 nM.
In the case of `CCCCCCOC(=O)Nc1c(-c2ccc(NS(C)(=O)=O)c(C)n2)nnn1C` [Compound 31, hexyl (1-methyl-4-(6-methyl-5-(methylsulfonamido)pyridin-2-yl)-1H-1,2,3-triazol-5-yl)carbamate], the EC50 came out at 1220 nM.
Regarding `Cc1nc(-c2nnn(C)c2NC(=O)O[C@H](C)c2cccc(F)c2)ccc1NS(=O)(=O)C1COC1` [Compound 109, (R)-1-(3-fluoro-phenyl)ethyl (1-methyl-4-(6-methyl-5-(oxetane-3-sulfonamido)pyridin-2-yl)-1H-1,2,3-triazol-5-yl)carbamate], the EC50 was found to be 705 nM.

The record behind these values is US11548871B2, “Triazole carbamate pyridyl sulfonamides as LPA receptor antagonists and uses thereof” (Gilead Sciences, Inc., priority 2019, dated 2023).
